Key:
B16/F10 cells = test: Chemotactic motility of B16/F10 cells through MATRI-GEL-coated transwell filter; assay type: cell-based, mouse
Method: (§1) The assays for determining chemotactic cell motility and chemoinvasion can be performed using transwell plates with a polycarbonate membrane filter (pore size 8 μm) (Costar Scientific, Cambridge, Mass.). Aliguots, e.g., 50 μl, of an aqueous solution of MATRI-GEL (Collaborative Research, Bedford, Mass.) containing SPN-1-P or other inhibitor (e.g., 20 μg/ml for chemotactic motility assay or 200 μg/ml for chemoinvasion assay), is added to each well and dried overnight. The filter is then fitted onto the lower chamber plate. The lower chamber can contain conditioned medium (CM) (i.e., medium used for splenic stromal cell culture, and containing motility factor secreted by these cells), e.g., 0.6 ml, with or without SPN-1-P or other inhibitor. To the upper chamber is added, e.g., about 100 μl, of cell suspension (5×10^4 cells/ml for invasion assay, 5×10^5 cells/ml for motility assay), which is then incubated in 5% CO2 at 37° C. for 70-72 hours (invasion assay) or 20 hours (motility assay). After incubation, cells remaining in the upper chamber are wiped off with a cotton swab, and cells which had migrated to the lower chamber side of the filter are fixed in methanol for 30 seconds and stained with 0.05% toluidine blue. The filter is removed, the stain is solubilized in 10% acetic acid (e.g., 0.1 ml for invasion assay, 0.5 ml for motility assay), and color intensity (optical density) is quantitated by ELISA reading at 630 nm. Using SPN-1-P, a linear relationship was observed between cell number and toluidine blue optical density (FIG. 7).
(§2) Assays were performed using transwell plates with polycarbonate membrane filters (pore size 8 μm) (Costar Scientific, Cambridge, Mass.). 50 μl aliguots of an aqueous solution of MATRI-GEL (Collaborative Research, Bedford, Mass.) containing 20 μg/ml (for chemotactic motility assay) or 200 μg/ml (for chemoinvasion assay) were added to each well and dried overnight. The filter was fitted onto the lower chamber plate. The lower chamber contained 0.6 ml conditioned medium (CM) (i.e., medium used for splenic stromal cell culture, and containing motility factor secreted by these cells) with or without the suspected inhibitor. To the upper chamber was added 100 μl of cell suspension (5×10^4 cells/ml for invasion assay, 5×10^5 cells/ml for motility assay), which was then incubated in 5% CO2 at 37° C. for 70-72 hours (invasion assay) or 20 hours (motility assay). After incubation, cells remaining in the upper chamber were wiped off with a cotton swab, and cells which had migrated to the lower chamber side of the filter were fixed in methanol for 30 seconds and stained with 0.05% toluidine blue. The filter was removed, the stain was solubilized in 10% acetic acid (0.1 ml for invasion assay, 0.5 ml for motility assay), and color intensity (optical density) was quantitated by ELISA reading at 630 nm. A linear relationship was observed between cell number and toluidine blue optical density (FIG. 7.).
(§3) In experiments with different quantities of MATRI-GEL, cell migration through transwell filter was maximal with 1 μg/well was applied, and when CM was used (FIG. 8). Therefore, chemotactic cell motility, as affected by various SPN derivatives, was assayed under these conditions.
(§4) *Mean ± S.E. of percent relative to control (n = 4). Actual O.D. value
(§5) and 0.147 (HT1080). 6 × 10^4 cells were placed on a transwell
(§6) filter coated with 1.0 μg MATRIGEL in the upper chamber, and cultured
(§7) for 18 hours in the presence of CM and SPN1-P in the lower chamber.

[1] = test system: human fibrosarcoma HT1080 cells; test: Chemotactic motility of fibrosarcoma HT1080 cells through MATRI-GEL-coated transwell filter; assay type: cell-based
Method: as §1, §2, §3, §4, §5, §6, §7

Balb/c 3T3 fibroblasts = test: Chemotactic motility of Balb/c 3T3 fibroblasts through MATRI-GEL-coated transwell filter; assay type: cell-based; conditions: Mus musculus, 18 hours, relative to control, mean ± S.E., n = 4
Method: as §1, §2, §3, §4, §5, §6, §7

mouse 3T3 cell = conditions: literature; cited from earlier work

Q: Which results are given for `CCCCCCCCCCCCC/C=C/[C@@H](O)[C@@H](N)COP(=O)(O)O` [SPN-1-P, sphingosine-1-phosphate]?
A: activity at 0.001 µM (B16/F10 cells; Mus musculus, B16-F10, F10, 0.001 μM, 18 hours, relative to control, mean ± S.E., n = 4): 96 ± 21%; activity at 0.01 µM (B16/F10 cells; Mus musculus, B16-F10, F10, 0.01 μM, 18 hours, relative to control, mean ± S.E., n = 4): 10 ± 4%; activity at 0.1 µM (B16/F10 cells; Mus musculus, B16-F10, F10, 0.1 μM, 18 hours, relative to control, mean ± S.E., n = 4): 4 ± 2%; activity at 1 µM (B16/F10 cells; Mus musculus, B16-F10, F10, 1.0 μM, 18 hours, relative to control, mean ± S.E., n = 4): 4 ± 1%; Susceptibility of B16/F10 cells (chemotactic motility) (B16/F10 cells; Table V, in words): high; activity at 0.001 µM ([1]; Homo sapiens, HT-1080, HT1080, 0.001 μM, 18 hours, relative to control, mean ± S.E., n = 4): 100 ± 21%; activity at 0.01 µM ([1]; Homo sapiens, HT-1080, HT1080, 0.01 μM, 18 hours, relative to control, mean ± S.E., n = 4): 100 ± 30%; activity at 0.1 µM ([1]; Homo sapiens, HT-1080, HT1080, 0.1 μM, 18 hours, relative to control, mean ± S.E., n = 4): 115 ± 35%; activity at 1 µM ([1]; Homo sapiens, HT-1080, HT1080, 1.0 μM, 18 hours, relative to control, mean ± S.E., n = 4): 105 ± 14%; activity at 5 µM ([1]; Homo sapiens, HT-1080, HT1080, 5.0 μM, 18 hours, relative to control, mean ± S.E., n = 4): 64 ± 4%; Susceptibility of human fibrosarcoma HT1080 cells (chemotactic motility) ([1]; Table V, in words): low; activity at 0.001 µM (Balb/c 3T3 fibroblasts; BALB/c3T3, 0.001 μM): 119 ± 9%; activity at 0.01 µM (Balb/c 3T3 fibroblasts; BALB/c3T3, 0.01 μM): 125 ± 5%; activity at 0.1 µM (Balb/c 3T3 fibroblasts; BALB/c3T3, 0.1 μM): 101 ± 10%; activity at 1 µM (Balb/c 3T3 fibroblasts; BALB/c3T3, 1.0 μM): 40 ± 1%; activity at 5 µM (Balb/c 3T3 fibroblasts; BALB/c3T3, 5.0 μM): 11 ± 1%

Q: Which “Mouse 3T3 cell growth” value (mouse 3T3 cell) does the source give for `CCCCCCCCCCCCC/C=C/[C@@H](O)[C@@H](N)CO` [SPN, sphingosine] here?
A: Its value is “stimulation of mouse 3T3 cell growth”.

Reference: patent US5391800A, “Method for inhibition of cell motility by sphingosine-1-phosphate, its derivatives and mimetics and method of synthesizing sphingosine-1-phosphate and its derivatives” (The Biomembrane Institute, priority 1993, dated 1995)
